# ChEMBL document CHEMBL1123205, “Synthesis and antihypertensive activity of a series of 4-amino-6,7-dimethoxyquinazoline derivatives” (1986)
# Columns and labels:
# Assay type in all cases: functional
# Rattus norvegicus [1] = assay: Antihypertensive activity determined as percent fall in blood pressure after 4 hours in spontaneously hypertensive rats administered with 10 mg/kg, (po)
# Rattus norvegicus [2] = assay: Antihypertensive activity determined as percent fall in blood pressure after 2 hr in spontaneously hypertensive rats administered with 10 mg/kg (po)
# Rattus norvegicus [3] = assay: Antihypertensive activity determined as percent fall in blood pressure after 2 hr in spontaneously hypertensive rats administered with 3 mg/kg (po)
# Rattus norvegicus [4] = assay: Antihypertensive activity determined as percent fall in blood pressure after 4 hours in spontaneously hypertensive rats administered with 3 mg/kg, (po)
SMILES,Activity (Rattus norvegicus [1]) [%],Activity (Rattus norvegicus [2]) [%],Activity (Rattus norvegicus [3]) [%],Activity (Rattus norvegicus [4]) [%]
COc1cc2nc(N(C)CCCN(C)C(=O)c3cccnc3)nc(N)c2cc1OC.Cl,-9,-5,,
COc1cc2nc(N(C)CCCN(C)C(=O)c3nnc(SC)o3)nc(N)c2cc1OC.Cl,-6,-20,,
COc1cc(OC)cc(C(=O)N(C)CCCN(C)c2nc(N)c3cc(OC)c(OC)cc3n2)c1.Cl,-2,-6,,
COc1cc2nc(N(C)CCCCN(C)C(=O)c3ccccc3)nc(N)c2cc1OC.Cl,-12,-21,,
COc1cc2nc(N(C)CCCN(C)C(=O)c3cccc(C)c3)nc(N)c2cc1OC.Cl,0,-10,,
COc1cc2nc(N(C)CCN(C)C(=O)c3ccco3)nc(N)c2cc1OC.Cl,0,0,,
COc1cc2nc(N3CCN(C(=O)c4ccco4)CC3)nc(N)c2cc1OC.Cl [PRAZOSIN HYDROCHLORIDE],-35,-37,-30,-25
COc1cc2nc(N(C)CCN(C)C(=O)c3ccccc3)nc(N)c2cc1OC,0,0,,
COc1cc2nc(N(C)CCCNC(=O)/C=C/c3ccccc3)nc(N)c2cc1OC.Cl,3,0,,
CCN(CCCN(CC)c1nc(N)c2cc(OC)c(OC)cc2n1)C(=O)c1ccccc1.Cl,-5,-1,,
COc1cc2nc(N(C)CCCN(C)C(=O)c3ccccc3)nc(N)c2cc1OC.Cl,-15,-23,,
COc1cc2nc(N(C)CCCN(C)C(=O)C3CCCO3)nc(N)c2cc1OC.Cl (configuration not stated),-7,-14,,
COc1cc2nc(NCCCNC(=O)c3ccccc3)nc(N)c2cc1OC.Cl,-7,-9,,
COc1cc2nc(N(C)CCCNC(=O)C3CCOCC3)nc(N)c2cc1OC,-7,-27,,
COc1cc2nc(N(C)CCCNC(=O)c3ccco3)nc(N)c2cc1OC.Cl,-17,-20,,
COc1cc2nc(N(C)CCCNC(=O)C3CC3)nc(N)c2cc1OC.Cl,-12,-19,,
COc1cc2nc(N(C)CCCNC(=O)c3ccccc3)nc(N)c2cc1OC.Cl,-23,-31,,
COc1cc2nc(N(C)CCCNC(=O)C3CCCC3)nc(N)c2cc1OC.Cl,-20,-30,,
COc1cc2nc(N(C)CCCNC(=O)C3Cc4ccccc4O3)nc(N)c2cc1OC.Cl (configuration not stated),-19,-22,,
COc1cccc(C(=O)N(C)CCCN(C)c2nc(N)c3cc(OC)c(OC)cc3n2)c1.Cl,0,-12,,
CCN(CCCN(CC)c1nc(N)c2cc(OC)c(OC)cc2n1)C(=O)c1ccco1.Cl,-11,-16,,
COc1cc2nc(N(C)CCCN(CC(C)C)C(=O)c3ccccc3)nc(N)c2cc1OC.Cl,6,0,,
COc1cc2nc(N(C)CCCN(C)C(=O)c3ccco3)nc(N)c2cc1OC.Cl,-20,-24,,
COc1cc2nc(N(C)CCCN(C)C(=O)c3cc(OC)c(OC)c(OC)c3)nc(N)c2cc1OC.Cl,-6,-11,,
COc1cc2nc(N(C)CCCNC(=O)C3CCOC3)nc(N)c2cc1OC.Cl (configuration not stated),-10,-24,,
CCN(CCCN(C)C(=O)c1ccccc1)c1nc(N)c2cc(OC)c(OC)cc2n1.Cl,-12,-16,,
COc1cc2nc(N(C)CCCNC(=O)C3CCCO3)nc(N)c2cc1OC.Cl (configuration not stated) [ALFUZOSIN HYDROCHLORIDE],-24,-34,,
COc1cc2nc(N(C)CCCNC(=O)C3COc4ccccc4O3)nc(N)c2cc1OC.Cl (configuration not stated),-6,2,,
COc1cc2nc(NCCCN(C)C(=O)C3CCCO3)nc(N)c2cc1OC.Cl (configuration not stated),-6,-8,,
COc1cc2nc(N(C)CCCNC(=O)c3cc4ccccc4o3)nc(N)c2cc1OC.Cl,0,0,,
